Data published in BindingDB's records for doi:10.1021/jm960276a (Texas A&M University, 1996).
Square brackets hold non-standard residues; d marks the D form. Peptide text beside a SMILES is read from it. NMeR = CN[C@@H](CCCNC(=N)N)C(=O)O; 3Amb = NCc1cccc(C(=O)O)c1; dAbu = CC[C@@H](N)C(=O)O

Target: Integrin alpha-IIb/beta-3 (Homo sapiens, UniProt P08514+P05106)
Assay: Inhibition of human platelet aggregation mediated by alpha llb/beta3 interaction with fibrinogen

Chain of Integrin alpha-IIb/beta-3 (P05106 27-788 limits assumed): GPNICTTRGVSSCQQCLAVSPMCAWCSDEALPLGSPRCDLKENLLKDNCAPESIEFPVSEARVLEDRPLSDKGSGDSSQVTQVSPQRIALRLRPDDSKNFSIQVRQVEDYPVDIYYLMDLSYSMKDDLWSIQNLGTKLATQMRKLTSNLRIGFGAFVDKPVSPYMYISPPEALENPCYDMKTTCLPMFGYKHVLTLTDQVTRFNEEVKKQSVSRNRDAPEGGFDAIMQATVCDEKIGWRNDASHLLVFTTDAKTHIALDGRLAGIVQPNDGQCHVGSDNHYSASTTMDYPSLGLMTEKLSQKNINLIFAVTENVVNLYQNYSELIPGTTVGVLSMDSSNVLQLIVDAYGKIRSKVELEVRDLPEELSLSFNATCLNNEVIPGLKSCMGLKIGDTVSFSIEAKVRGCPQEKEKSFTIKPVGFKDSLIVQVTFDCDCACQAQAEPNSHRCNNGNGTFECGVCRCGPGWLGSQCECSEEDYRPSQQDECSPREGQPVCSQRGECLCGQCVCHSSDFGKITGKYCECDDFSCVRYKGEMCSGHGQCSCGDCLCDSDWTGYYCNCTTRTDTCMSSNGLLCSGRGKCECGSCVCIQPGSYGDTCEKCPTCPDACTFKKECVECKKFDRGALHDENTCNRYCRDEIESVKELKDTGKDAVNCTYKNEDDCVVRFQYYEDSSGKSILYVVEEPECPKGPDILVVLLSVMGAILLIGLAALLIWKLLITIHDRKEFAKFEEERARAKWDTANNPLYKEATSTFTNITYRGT
Chain of Integrin alpha-IIb/beta-3 (P08514 32-887 limits assumed): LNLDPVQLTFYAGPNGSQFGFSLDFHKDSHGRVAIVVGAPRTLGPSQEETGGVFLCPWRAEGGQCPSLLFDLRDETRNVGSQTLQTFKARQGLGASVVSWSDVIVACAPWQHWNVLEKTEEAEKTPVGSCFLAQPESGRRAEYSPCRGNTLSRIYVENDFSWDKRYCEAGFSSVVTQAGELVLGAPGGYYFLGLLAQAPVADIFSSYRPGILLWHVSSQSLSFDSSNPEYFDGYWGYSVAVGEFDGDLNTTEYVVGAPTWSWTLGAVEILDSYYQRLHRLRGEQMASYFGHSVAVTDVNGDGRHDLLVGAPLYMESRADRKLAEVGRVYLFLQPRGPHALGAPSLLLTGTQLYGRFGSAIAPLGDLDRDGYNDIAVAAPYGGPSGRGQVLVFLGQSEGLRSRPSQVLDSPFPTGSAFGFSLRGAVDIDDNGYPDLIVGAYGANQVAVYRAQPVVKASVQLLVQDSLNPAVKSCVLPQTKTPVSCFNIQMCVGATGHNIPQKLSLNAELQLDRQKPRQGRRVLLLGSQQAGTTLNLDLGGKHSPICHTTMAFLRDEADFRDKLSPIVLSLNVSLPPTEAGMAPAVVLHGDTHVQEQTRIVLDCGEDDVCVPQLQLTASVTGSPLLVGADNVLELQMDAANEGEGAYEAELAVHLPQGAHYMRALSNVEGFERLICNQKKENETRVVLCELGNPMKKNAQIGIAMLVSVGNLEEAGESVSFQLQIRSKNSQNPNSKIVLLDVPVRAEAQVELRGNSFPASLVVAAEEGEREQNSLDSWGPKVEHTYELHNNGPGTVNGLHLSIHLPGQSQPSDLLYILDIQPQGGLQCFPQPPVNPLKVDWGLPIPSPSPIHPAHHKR
Chain of Integrin alpha-IIb/beta-3 (P08514 891-1039 limits assumed): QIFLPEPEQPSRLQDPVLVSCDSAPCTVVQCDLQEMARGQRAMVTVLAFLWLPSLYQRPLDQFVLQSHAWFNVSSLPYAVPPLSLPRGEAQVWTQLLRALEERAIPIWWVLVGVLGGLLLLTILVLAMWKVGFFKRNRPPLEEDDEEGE

IC50	SMILES
> 100 µM	N=C(N)NCCC[C@H](NC(=O)[C@H](CC(=O)O)NC(=O)CNC(=O)[C@@H](N)CCCNC(=N)N)C(=O)NCC(=O)N[C@@H](CC(=O)O)C(=O)O [(S)-2-[2-((S)-2-{(S)-2-[2-((S)-2-Amino-5-guanidino-pentanoylamino)-acetylamino]-3-carboxy-propionylamino}-5-guanidino-pentanoylamino)-acetylamino]-succinic acid] (H-RGDRGD-OH)
0.02 µM	CC[C@H]1NC(=O)c2cccc(c2)CNC(=O)[C@H](CC(=O)O)NC(=O)CNC(=O)[C@H](CCCN=C(N)N)N(C)C1=O [DMP-728] (cyclo([NMeR]GD[3Amb][dAbu]))
> 100 µM	N=C(N)NCCC[C@@H]1NC(=O)[C@H](CC(=O)O)NC(=O)CNC(=O)[C@H](CCCNC(=N)N)NC(=O)[C@H](CC(=O)O)NC(=O)CNC1=O [[(2S,5R,11R,14S)-11-Carboxymethyl-5,14-bis-(3-guanidino-propyl)-3,6,9,12,15,18-hexaoxo-1,4,7,10,13,16hexaaza-cyclooctadec-2-yl]-acetic acid]
> 100 µM	N=C(N)NCCC[C@@H]1NC(=O)[C@H](CC(=O)O)NC(=O)CNC(=O)[C@H](CCCNC(=N)N)NC(=O)[C@@H](CC(=O)O)NC(=O)CNC1=O [[(2S,5R,11S,14S)-11-Carboxymethyl-5,14-bis-(3-guanidino-propyl)-3,6,9,12,15,18-hexaoxo-1,4,7,10,13,16hexaaza-cyclooctadec-2-yl]-acetic acid]
